Measurements reported in patent US10040781B2, “Tank-binding kinase inhibitor compounds” (Gilead Sciences, Inc., priority 2014, dated 2018).

What was measured:
TBK1 = TBK1 (Homo sapiens (Human), UniProt Q9UHD2); experiment: TBK1 TR-FRET enzymatic assay;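 also: phosphorylation of a biotinylated Ser/Thr peptide by purified full-length recombinant TBK1, read by TR-FRET after 240 min at 25 °C, IC50 is the geometric mean of at least four runs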
IKKε = IKKε (Homo sapiens (Human), UniProt Q14164); experiment: IKKε TR-FRET enzymatic assay; format: biochemical; conditions: read-out: IKKe IC50
hJAK2 = hJAK2 (Homo sapiens (Human), UniProt O60674); experiment: hJAK2 LANCE TR-FRET enzymatic assay; format: biochemical; conditions: read-out: JAK2 IC50
hJAK2, sequence (O60674 whole entry): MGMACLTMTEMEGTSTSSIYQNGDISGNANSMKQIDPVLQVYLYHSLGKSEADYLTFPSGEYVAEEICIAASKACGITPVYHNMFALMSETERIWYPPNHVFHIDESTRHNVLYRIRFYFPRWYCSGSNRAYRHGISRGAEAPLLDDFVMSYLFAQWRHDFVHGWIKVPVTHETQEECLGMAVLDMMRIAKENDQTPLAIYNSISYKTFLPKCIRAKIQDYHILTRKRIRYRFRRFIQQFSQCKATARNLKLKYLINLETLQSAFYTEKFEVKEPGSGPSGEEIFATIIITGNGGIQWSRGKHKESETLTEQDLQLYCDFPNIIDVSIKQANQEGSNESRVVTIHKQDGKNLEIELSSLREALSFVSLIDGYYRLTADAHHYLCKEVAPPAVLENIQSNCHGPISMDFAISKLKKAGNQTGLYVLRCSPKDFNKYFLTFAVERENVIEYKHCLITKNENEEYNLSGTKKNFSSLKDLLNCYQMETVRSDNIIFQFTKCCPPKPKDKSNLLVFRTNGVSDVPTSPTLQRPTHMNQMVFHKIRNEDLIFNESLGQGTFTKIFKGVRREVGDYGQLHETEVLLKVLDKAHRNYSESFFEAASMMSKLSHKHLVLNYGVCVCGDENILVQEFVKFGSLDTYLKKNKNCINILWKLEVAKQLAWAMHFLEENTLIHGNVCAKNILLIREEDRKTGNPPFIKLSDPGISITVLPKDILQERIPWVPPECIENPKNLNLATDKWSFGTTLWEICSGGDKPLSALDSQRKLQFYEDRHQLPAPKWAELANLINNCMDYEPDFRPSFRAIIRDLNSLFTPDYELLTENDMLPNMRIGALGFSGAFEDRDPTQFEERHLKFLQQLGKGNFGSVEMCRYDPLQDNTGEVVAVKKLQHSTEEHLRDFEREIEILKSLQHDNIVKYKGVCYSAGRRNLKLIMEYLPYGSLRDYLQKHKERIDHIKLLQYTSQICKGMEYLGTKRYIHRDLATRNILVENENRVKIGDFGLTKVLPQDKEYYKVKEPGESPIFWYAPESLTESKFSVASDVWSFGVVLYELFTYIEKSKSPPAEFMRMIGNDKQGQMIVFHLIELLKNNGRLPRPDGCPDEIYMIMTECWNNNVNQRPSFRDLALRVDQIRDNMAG

TBK1, sequence (Q9UHD2 whole entry): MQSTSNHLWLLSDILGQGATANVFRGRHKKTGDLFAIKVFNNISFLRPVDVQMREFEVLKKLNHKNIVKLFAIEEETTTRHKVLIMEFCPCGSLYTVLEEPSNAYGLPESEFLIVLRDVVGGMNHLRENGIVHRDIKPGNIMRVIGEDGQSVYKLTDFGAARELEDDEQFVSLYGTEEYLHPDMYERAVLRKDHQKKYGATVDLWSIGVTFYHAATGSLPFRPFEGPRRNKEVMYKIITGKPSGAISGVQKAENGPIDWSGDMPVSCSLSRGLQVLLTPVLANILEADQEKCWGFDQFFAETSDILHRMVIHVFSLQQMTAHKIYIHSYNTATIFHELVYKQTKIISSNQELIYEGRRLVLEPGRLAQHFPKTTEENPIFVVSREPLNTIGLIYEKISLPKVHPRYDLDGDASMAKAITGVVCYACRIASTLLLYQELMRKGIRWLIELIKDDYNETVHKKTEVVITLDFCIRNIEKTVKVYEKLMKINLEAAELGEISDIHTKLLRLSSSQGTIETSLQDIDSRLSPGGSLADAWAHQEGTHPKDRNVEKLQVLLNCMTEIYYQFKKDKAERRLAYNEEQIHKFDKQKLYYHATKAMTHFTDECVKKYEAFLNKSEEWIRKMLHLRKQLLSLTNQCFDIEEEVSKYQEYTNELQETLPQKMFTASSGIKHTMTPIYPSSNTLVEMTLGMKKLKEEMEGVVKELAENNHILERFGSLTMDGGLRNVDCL
IKKε, sequence (Q14164 whole entry): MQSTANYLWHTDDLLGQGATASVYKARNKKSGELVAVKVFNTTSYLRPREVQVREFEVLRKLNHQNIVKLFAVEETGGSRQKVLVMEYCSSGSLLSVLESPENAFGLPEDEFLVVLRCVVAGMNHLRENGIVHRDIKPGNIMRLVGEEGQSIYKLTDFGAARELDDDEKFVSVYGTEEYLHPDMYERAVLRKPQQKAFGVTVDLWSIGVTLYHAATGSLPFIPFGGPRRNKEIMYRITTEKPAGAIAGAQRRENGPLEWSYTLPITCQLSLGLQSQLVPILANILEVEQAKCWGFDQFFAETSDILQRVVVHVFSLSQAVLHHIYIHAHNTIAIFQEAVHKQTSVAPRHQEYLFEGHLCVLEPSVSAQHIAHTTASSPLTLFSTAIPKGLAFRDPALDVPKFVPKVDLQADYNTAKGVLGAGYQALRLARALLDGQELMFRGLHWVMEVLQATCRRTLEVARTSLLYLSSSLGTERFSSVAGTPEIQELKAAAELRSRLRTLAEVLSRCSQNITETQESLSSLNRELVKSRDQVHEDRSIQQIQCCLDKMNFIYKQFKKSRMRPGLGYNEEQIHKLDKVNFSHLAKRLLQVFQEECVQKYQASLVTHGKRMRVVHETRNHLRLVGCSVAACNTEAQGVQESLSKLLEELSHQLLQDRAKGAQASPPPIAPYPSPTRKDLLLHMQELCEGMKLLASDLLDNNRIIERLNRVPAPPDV

Structure (SMILES)	IC50 (TBK1) [nM]	IC50 (IKKε) [nM]	IC50 (hJAK2) [nM]
C[C@H](O)C(=O)N1CC[C@H](Oc2ccc(-c3ncnc(Nc4ccc(C5CCOCC5)cc4)n3)cc2C#N)[C@H](F)C1 [Example 293, 2-(((3R,4S)-3-fluoro-1-((S)-2-hydroxypropanoyl)piperidin-4-yl)oxy)-5-(4-((4-(tetrahydro-2H-pyran-4-yl)phenyl)amino)-1,3,5-triazin-2-yl)benzonitrile]	3	2	≥ 1000
C[C@H](O)C(=O)N1CC[C@H](Oc2ccc(-c3ncnc(Nc4cnn(C(C)(C)C)c4)n3)cc2C#N)[C@H](F)C1 [Example 294, 5-(4-((1-(tert-butyl)-1H-pyrazol-4-yl)amino)-1,3,5-triazin-2-yl)-2-(((3R,4S)-3-fluoro-1-((S)-2-hydroxypropanoyl)piperidin-4-yl)oxy)benzonitrile]	4	5	228
N#Cc1cc(-c2ncnc(Nc3ccc(N4CCNCC4)c(F)c3)n2)ccc1O[C@H]1CCN(C=O)C[C@H]1F [Example 296, 2-(((3R,4S)-3-fluoro-1-formylpiperidin-4-yl)oxy)-5-(4-((3-fluoro-4-(piperazin-1-yl)phenyl)amino)-1,3,5-triazin-2-yl)benzonitrile]	3	1	274
N#Cc1cc(-c2ncnc(Nc3ccc(N4CCN(C5COC5)CC4)cc3)n2)ccc1O[C@H]1CCOC[C@H]1F [Example 297, 2-(((3R,4S)-3-fluorotetrahydro-2H-pyran-4-yl)oxy)-5-(4-((4-(4-(oxetan-3-yl)piperazin-1-yl)phenyl)amino)-1,3,5-triazin-2-yl)benzonitrile]	2	4	397
N#Cc1cc(-c2ncnc(Nc3ccc(N4CCN(C=O)CC4)c(F)c3)n2)ccc1O[C@H]1CCOC[C@H]1F [Example 299, 5-(4-((3-fluoro-4-(4-formylpiperazin-1-yl)phenyl)amino)-1,3,5-triazin-2-yl)-2-(((3R,4S)-3-fluorotetrahydro-2H-pyran-4-yl)oxy)benzonitrile]	4	8	401
CN1CCC(c2ccc(Nc3ncnc(-c4ccc(O[C@H]5CCOC[C@H]5F)c(C#N)c4)n3)cc2)CC1 [Example 300, 2-(((3R,4S)-3-fluorotetrahydro-2H-pyran-4-yl)oxy)-5-(4-((4-(1-methylpiperidin-4-yl)phenyl)amino)-1,3,5-triazin-2-yl)benzonitrile]	4	3	453
N#Cc1cc(-c2ncnc(Nc3ccc(N4CCN(C5CCOCC5)CC4)c(F)c3)n2)ccc1O[C@H]1CCN(C(=O)CO)C[C@H]1F [Example 307, 2-(((3R,4S)-3-fluoro-1-(2-hydroxyacetyl)piperidin-4-yl)oxy)-5-(4-((3-fluoro-4-(4-(tetrahydro-2H-pyran-4-yl)piperazin-1-yl)phenyl)amino)-1,3,5-triazin-2-yl)benzonitrile]	3	1	268
C[C@H](O)C(=O)N1CC[C@H](Oc2ccc(-c3ncnc(Nc4ccc(N5CCN(CC6COC6)CC5)cc4)n3)cc2C#N)[C@H](F)C1 [Example 308, 2-(((3R,4S)-3-fluoro-1-((S)-2-hydroxypropanoyl)piperidin-4-yl)oxy)-5-(4-((4-(4-(oxetan-3-ylmethyl)piperazin-1-yl)phenyl)amino)-1,3,5-triazin-2-yl)benzonitrile]	2	1	475
C[C@H](O)C(=O)N1CC[C@H](Oc2ccc(-c3ncnc(Nc4ccc(N5CCN(C6CCOCC6)CC5)cc4)n3)cc2C#N)[C@H](F)C1 [Example 309, 2-(((3R,4S)-3-fluoro-1-((S)-2-hydroxypropanoyl)piperidin-4-yl)oxy)-5-(4-((4-(4-(tetrahydro-2H-pyran-4-yl)piperazin-1-yl)phenyl)amino)-1,3,5-triazin-2-yl)benzonitrile]	2	1	423
C[C@H](O)C(=O)N1CC[C@H](Oc2ccc(-c3ncnc(Nc4ccc(C5CCN(C6COC6)CC5)c(F)c4)n3)cc2C#N)[C@H](F)C1 [Example 310, 2-(((3R,4S)-3-fluoro-1-((S)-2-hydroxypropanoyl)piperidin-4-yl)oxy)-5-(4-((3-fluoro-4-(1-(oxetan-3-yl)piperidin-4-yl)phenyl)amino)-1,3,5-triazin-2-yl)benzonitrile]	4	2	≥ 1000
C[C@H](O)C(=O)N1CC[C@H](Oc2ccc(-c3ncnc(Nc4ccc(N5CCN(C6(C)COC6)CC5)cc4)n3)cc2C#N)[C@H](F)C1 [Example 312, 2-(((3R,4S)-3-fluoro-1-((S)-2-hydroxypropanoyl)piperidin-4-yl)oxy)-5-(4-((4-(4-(3-methyloxetan-3-yl)piperazin-1-yl)phenyl)amino)-1,3,5-triazin-2-yl)benzonitrile]	3	3	636
C[C@H](O)C(=O)N1CC[C@H](Oc2ccc(-c3ncnc(Nc4ccc(N5CC6(CCOCC6)C5)cc4)n3)cc2C#N)[C@H](F)C1 [Example 313, 5-(4-((4-(7-oxa-2-azaspiro[3.5]nonan-2-yl)phenyl)amino)-1,3,5-triazin-2-yl)-2-(((3R,4S)-3-fluoro-1-((S)-2-hydroxypropanoyl)piperidin-4-yl)oxy)benzonitrile]	4	2	375
C[C@H](O)C(=O)N1CC[C@H](Oc2ccc(-c3ncnc(Nc4ccc(N5CCOC(C(N)=O)C5)cc4)n3)cc2C#N)[C@H](F)C1 (stereo partly drawn) [Example 314, 4-(4-((4-(3-cyano-4-(((3R,4S)-3-fluoro-1-((S)-2-hydroxypropanoyl)piperidin-4-yl)oxy)phenyl)-1,3,5-triazin-2-yl)amino)phenyl)morpholine-2-carboxamide]	3	1	609
C[C@H](O)C(=O)N1CC[C@H](Oc2ccc(-c3ncnc(Nc4ccc(N5CCO[C@@H](C(N)=O)C5)cc4)n3)cc2C#N)[C@H](F)C1 [Example 315, (R)-4-(4-((4-(3-cyano-4-(((3R,4S)-3-fluoro-1-((S)-2-hydroxypropanoyl)piperidin-4-yl)oxy)phenyl)-1,3,5-triazin-2-yl)amino)phenyl)morpholine-2-carboxamide]	9	3	564
C[C@H](O)C(=O)N1CC[C@H](Oc2ccc(-c3ncnc(Nc4ccc(N5CCO[C@H](C(N)=O)C5)cc4)n3)cc2C#N)[C@H](F)C1 [Example 316, (S)-4-(4-((4-(3-cyano-4-(((3R,4S)-3-fluoro-1-((S)-2-hydroxypropanoyl)piperidin-4-yl)oxy)phenyl)-1,3,5-triazin-2-yl)amino)phenyl)morpholine-2-carboxamide]	3	2	347
C[C@H](O)C(=O)N1CC[C@H](Oc2ccc(-c3ncnc(Nc4ccc(N5CC6COCC6C5)cc4)n3)cc2C#N)[C@H](F)C1 (stereo partly drawn) [Example 317, 2-(((3R,4S)-3-fluoro-1-((S)-2-hydroxypropanoyl)piperidin-4-yl)oxy)-5-(4-((4-(tetrahydro-1H-furo[3,4-c]pyrrol-5(3H)-yl)phenyl)amino)-1,3,5-triazin-2-yl)benzonitrile]	2	1	≥ 1000
